# Literature values as cited in patent publication EP3173487A1 (priority 2015, dated 2017).
# Tested on: haloalkane dehalogenases
# Details: pH 8.6
row,SMILES,classification as substrate of the analyzed haloalkane dehalogenases
1,CCCCBr [1-bromobutane],universal
2,"BrCCBr [1,2-dibromoethane]",universal
3,ClC1CCCCC1 [chlorocyclohexane],poor
4,N#CCCCBr [4-bromobutanenitrile],universal
5,"ClCC(Cl)CCl [1,2,3-trichloropropane]",poor
6,CCCCI [1-iodobutane],universal
7,CCCI [1-iodopropane],universal
8,"CC(Cl)CCl (stereo not drawn) [1,2-dichloropropane]",poor
9,BrCC1CCCCC1 [(bromomethyl)cyclohexane],poor
